# What was measured:
# Botrytis cinerea = assay: Treatment of wounded strawberries inoculated with Botrytis cinerea (Examples 5, 6); format: in vivo; settings: for Observed antifungal activity O (%): strawberries, 20° C.
# Method: Twelve fresh, organic strawberries were used per treatment. Each strawberry was wounded with a 0.5 mm long cut and each wound was inoculated with 10 μl of a Botrytis cinerea suspension containing 1×10^5 of spores/ml. After a 3-hour incubation period at 20° C., each strawberry was dipped individually for 1 minute in a freshly prepared aqueous antifungal composition comprising either 500 ppm natamycin (DSM Food Specialties, Delft, The Netherlands), 500 ppm fenhexamid or both. Each antifungal composition also comprised 3.2% (w/w) beeswax, 0.8% (w/w) glycerol, 0.7% (w/w) polyoxyethylene sorbitan monostearate (Tween 60), 0.1% (w/w) polyoxyethylene sorbitan monooleate (Tween 80), 0.05% (w/w) methylhydroxyethyl-cellulose (MHEC), 0.03% (w/w) anti-foaming agent, 0.02% (w/w) xanthan gum, 0.02% (w/w) citric acid, 0.01% (w/w) lactic acid and 0.01% potassium sorbate. A composition without natamycin or fenhexamid was used as control. […] The treated strawberries were incubated in a closed box in the dark at 20° C. for 11 days.
# The expected antifungal activity (E in %) of the combined antifungal composition comprising both active ingredients was calculated according to the Colby equation (Colby, 1967): […]
# wherein X and Y are the observed antifungal activities (in %) of the individual active ingredients X and Y, respectively.
# The experiment was conducted as described in Example 5, except for the fact that each wounded and inoculated strawberry was dipped individually for 1 minute in a freshly prepared aqueous antifungal composition comprising either 250 ppm natamycin (DSM Food Specialties, Delft, The Netherlands), 250 ppm fenhexamid or both. The treated strawberries were incubated in a closed box in the dark at 20° C. for 10 days. During incubation, the treated strawberries were assessed on mould growth according to the two methods described in Example 5.
# Penicillium italicum = assay: Treatment of wounded oranges inoculated with Penicillium italicum (Examples 7, 8); format: in vivo; settings: 20° C., 250 ppm natamycin, 400 ppm boscalid or both
# Method: Ten fresh, organic oranges were used per treatment. Each orange was soaked in a 180 ppm hypochlorite solution for 10 minutes, then rinsed thoroughly with fresh tap water and dried. The peel of each disinfected orange was wounded once using a cork borer according to the method described by de Lapeyre de Bellaire and Dubois (1987). Subsequently, each wound was inoculated with 10 μl of a Penicillium italicum suspension containing 1×10^5 of spores/ml. After incubation for 3 hours at 20° C., each wound and the orange peel area of 1 cm around the wound was treated with in total 150 μl of a freshly prepared aqueous antifungal composition comprising either 500 ppm natamycin (DSM Food Specialties, Delft, The Netherlands), 800 ppm boscalid or both. Each antifungal composition also comprised 3.2% (w/w) beeswax, 0.8% (w/w) glycerol, 0.7% (w/w) polyoxyethylene sorbitan monostearate (Tween 60), 0.2% (w/w) polyoxyethylene sorbitan monooleate (Tween 80), 0.05% (w/w) methylhydroxyethyl-cellulose (MHEC), 0.03% (w/w) anti-foaming agent, 0.02% (w/w) xanthan gum, 0.02% (w/w) citric acid, 0.01% (w/w) lactic acid and 0.01% potassium sorbate. A composition without natamycin or boscalid was used as control. […] The treated oranges were incubated in a closed box in the dark at 20° C. and assessed on mould growth during a 17-day incubation period. The antifungal activity (in %) of the individual and combined active ingredients was determined by calculating the reduction in mould growth observed on the oranges treated with the antifungal composition in comparison to the mould growth on the oranges treated with the control composition according to the Colby method (Colby, 1967) described in Example 5.
# The experiment was conducted as described in Example 7, except for the fact that each wounded and inoculated orange was treated with 150 μl of a freshly prepared aqueous antifungal composition comprising either 250 ppm natamycin (DSM Food Specialties, Delft, The Netherlands), 400 ppm boscalid or both. The treated oranges were incubated in a closed box in the dark at 20° C. and assessed on mould growth during a 18-day incubation period. During incubation, the treated oranges were assessed on mould growth according to the method described in Example 7.
compound,measurement,setting,value
"C[C@@H]1C/C=C/C=C/C=C/C=C/[C@H](O[C@@H]2O[C@H](C)[C@@H](O)[C@H](N)[C@@H]2O)C[C@@H]2O[C@](O)(C[C@@H](O)C[C@H]3O[C@@H]3/C=C/C(=O)O1)C[C@H](O)[C@H]2C(=O)O [Natamycin, natamycin]",Number of moulded strawberries/total number of 12 strawberries,"Botrytis cinerea; Day 5, 20° C., 250 ppm natamycin, 250 ppm fenhexamid or both",9/12
same,Number of moulded strawberries/total number of 12 strawberries,"Botrytis cinerea; Day 5, 20° C., 250 ppm natamycin, 250 ppm fenhexamid or both, listed as natamycin",9
same,Number of moulded strawberries/total number of 12 strawberries,"Botrytis cinerea; Day 6-7, 20° C., 250 ppm natamycin, 250 ppm fenhexamid or both",11/12
same,Number of moulded strawberries/total number of 12 strawberries,"Botrytis cinerea; Day 6-7, 20° C., 250 ppm natamycin, 250 ppm fenhexamid or both, listed as natamycin",11
same,Number of moulded strawberries/total number of 12 strawberries,"Botrytis cinerea; Day 7-8, 20° C., 500 ppm natamycin, 500 ppm fenhexamid or both",12/12
same,Number of moulded strawberries/total number of 12 strawberries,"Botrytis cinerea; Day 8, 20° C., 250 ppm natamycin, 250 ppm fenhexamid or both",11/12
same,Number of moulded strawberries/total number of 12 strawberries,"Botrytis cinerea; Day 8, 20° C., 250 ppm natamycin, 250 ppm fenhexamid or both, listed as natamycin",11
same,Number of moulded strawberries/total number of 12 strawberries,"Botrytis cinerea; Day 9, 20° C., 500 ppm natamycin, 500 ppm fenhexamid or both",12/12
same,Number of moulded strawberries of 12,"Botrytis cinerea; after 6 through 9 days of incubation, 500 ppm natamycin alone or 500 ppm fenhexamid alone",12
same,Observed antifungal activity O (%),"Botrytis cinerea; 8 days, 250 ppm natamycin, 250 ppm fenhexamid or both",18%
same,Observed antifungal activity O (%),"Botrytis cinerea; 9 days, 250 ppm natamycin, 250 ppm fenhexamid or both",13%
same,Observed antifungal activity O (%),"Botrytis cinerea; 10 days, 250 ppm natamycin, 250 ppm fenhexamid or both",4.8%
same,Observed antifungal activity O (%),"Botrytis cinerea; 10 days, 500 ppm natamycin, 500 ppm fenhexamid or both",2.4%
same,Observed antifungal activity O (%),"Botrytis cinerea; 11 days, 500 ppm natamycin, 500 ppm fenhexamid or both",2.4%
same,Observed antifungal activity O (%),Penicillium italicum; 11 days,69%
same,Observed antifungal activity O (%),Penicillium italicum; 12 days,66%
same,Observed antifungal activity O (%),Penicillium italicum; 13 days,62%
same,Observed antifungal activity O (%),Penicillium italicum; 14 days,51%
same,Observed antifungal activity O (%),Penicillium italicum; 17 days,39%
same,Observed antifungal activity O (%),Penicillium italicum; 18 days,34%
